Assay results reported in US9440972B2, “Pyrido[2,3-d]pyrimidine-2,4(1 H,3H)-dione derivatives” (Hydra Biosciences, Inc., priority 2014, dated 2016).

Tests used:
TRPC5 channel [1] = target: T1, TRPC5 channel (Homo sapiens, UniProt Q9UL62); assay: High throughput screening assay: Fluo4 cell-based fluorescence assay of intracellular Ca2+ rise; details: HEK293/TREx cells inducibly expressing TRPC5, 0.027-20 μM in triplicate, NF = no IC50 curve could be fit
T1 construct: expressed in transfected cells; host or cells: HEK293/TREx (Invitrogen), tetracycline-induced
T1 sequence (Q9UL62 1-973): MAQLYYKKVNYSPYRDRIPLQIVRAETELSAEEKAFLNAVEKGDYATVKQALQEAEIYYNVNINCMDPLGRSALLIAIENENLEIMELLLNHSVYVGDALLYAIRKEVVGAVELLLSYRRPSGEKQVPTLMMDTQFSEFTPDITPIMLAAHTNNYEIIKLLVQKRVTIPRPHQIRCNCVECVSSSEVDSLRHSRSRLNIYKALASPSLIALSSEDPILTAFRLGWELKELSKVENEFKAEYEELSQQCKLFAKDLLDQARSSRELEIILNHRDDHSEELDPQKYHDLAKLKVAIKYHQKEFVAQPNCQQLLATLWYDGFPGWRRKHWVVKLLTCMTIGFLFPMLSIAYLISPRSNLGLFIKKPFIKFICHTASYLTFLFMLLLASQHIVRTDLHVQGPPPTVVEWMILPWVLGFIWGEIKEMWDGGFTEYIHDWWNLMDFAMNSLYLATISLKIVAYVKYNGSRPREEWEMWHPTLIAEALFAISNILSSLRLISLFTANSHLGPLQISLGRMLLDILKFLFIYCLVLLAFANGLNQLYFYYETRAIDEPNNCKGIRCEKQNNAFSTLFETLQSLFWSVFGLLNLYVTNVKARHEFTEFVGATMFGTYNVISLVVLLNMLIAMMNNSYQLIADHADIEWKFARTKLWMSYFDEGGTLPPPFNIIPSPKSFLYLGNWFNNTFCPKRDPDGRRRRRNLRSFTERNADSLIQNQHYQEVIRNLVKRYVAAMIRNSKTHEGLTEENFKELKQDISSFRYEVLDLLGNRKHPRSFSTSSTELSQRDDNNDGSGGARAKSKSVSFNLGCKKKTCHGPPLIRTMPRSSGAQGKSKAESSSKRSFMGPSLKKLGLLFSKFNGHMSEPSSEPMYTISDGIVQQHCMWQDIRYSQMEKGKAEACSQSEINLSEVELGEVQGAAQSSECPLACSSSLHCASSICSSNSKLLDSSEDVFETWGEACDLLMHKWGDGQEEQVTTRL
Source text: The assay depended on detection of the rise in intracellular Ca2+ concentration ([Ca2+]i) following channel activation in cells inducibly expressing the TRPC5 channel. Ca2+ rise was quantified with the use of fluorescent Ca2+ indicators that were loaded into cells and thereafter indicated the [Ca2+]i Ca2+ influx followed activation of the TRPC5 channel. Compounds inhibiting the [Ca2+]i rise were considered hits for further investigation.
The commercially available HEK293/TREx line (Invitrogen) was stably transfected with a TRPC5 construct and screened by conventional calcium imaging to find clones with TRPC5 expression following stimulation with 1 μg/ml tetracycline. These cells were maintained in the growth medium recommended by the manufacturer supplemented with 100 μg/ml hygromycin to promote retention of the TRPC5 construct. After growing to near confluency, cells were plated at a density of ˜35,000 cells/well in 384 well CellBind plates (Corning) in the presence of 1 μg/ml tetracycline, and allowed to grow for 20-30 hrs. A nearly confluent monolayer resulted. Cells were then loaded with Ca2+ dye: Fura-2/AM or Fluo4/AM was added to the wells to a final concentration of 4 μM or 0.5 μM, respectively, and incubated for 80 min or 60 min, respectively, at room temperature. Supernatant was then removed from the cells by inverting plates with a sharp flick, and 25 μl Hank's Balanced Salt Solution (HBSS; 0.185 g/l D-glucose, 0.9767 g/l MgS04 (anhydrous), 0.4 g/l KCl, 0.06 g/l KH2PO4 (anhydrous), 0.35 g/l NaHCO3, 8.0 g/l NaCl, and 0.04788 g/l Na2HPO4 (anhydrous); pH 7.4) was then added to each well. Following ˜0.5 hour for recovery from loading, cells were assayed using the Hamamatsu FDSS 6000 system, which permitted illumination alternately at 340 nm and 380 nm for Fura-2 experiments, or at 485 nm for Fluo4 experiments. Frames were acquired at a rate of 0.2 Hz. During the assay, the plates were continuously vortexed, with pipette mixing of wells following addition of each reagent. For the screening assay, 26 μl of a diluted compound stock (at 50 μM) was added to each well for 2 minutes following the collection of a short (4 frame) baseline. 13 μl 62 mM high-Ca2+Ringer solution (4.17 ml of normal ringer (with 2 mM Ca2+) plus 5.83 ml of isotonic calcium ringer (105 mM Ca2+; in this ringer all sodium has been replaced with calcium)) was then added to each well, achieving a final concentration of 14 mM Ca2+ and 10 μM test compound. Data was collected for ˜3 minutes following addition of high Ca2+Ringer, where the fluorescent intensity (for Fluo4) and the F340/F380 ratio (for Fura-2) were proportional to the [Ca2+]i Negative controls consisted of HEK293/TREx TRPC5 cells exposed to high Ca2+ solution, but no compound. Positive control conditions consisted of addition of 2-APB, a promiscuous blocker of TRPC5 and other channels, to columns 23 and 24 of the plates, to a final concentration of 200 μM. These controls defined a screening window, and “hits” were defined as those compounds inhibiting the fluorescence response by at least 40%. IC50 values were determined for compounds defined as “hits.” The Fluo4 cell-based fluorescence assay was used to determine the intracellular Ca2+ concentration in the presence of varying drug concentration. Final concentrations of compounds tested were 20 μM, 6.667 μM, 2.222 μM, 0.741 μM, 0.247 μM, 0.082 μM, and 0.027 μM. Compounds were tested in triplicate at all concentrations. Standard software was used to fit IC50 curves. A value of NF was assigned when no IC50 curves could not be fit.
Additionally or alternatively, efficacy can be represented as % inhibition in the presence (of a given concentration of compound) versus the absence of compound or in comparison to a control compound. For example, efficacy can be represented as % inhibition of ion flux in the presence versus the absence of compound.

TRPC5 channel [2] = target: T1, TRPC5 channel; assay: Patch clamp experiments (whole-cell, LaCl3-activated TRPC5 current); type: cell-based; details: whole-cell patch clamp in TRPC5-expressing HEK293 TREx cells; block of inward and outward currents in continued presence of LaCl3; IC50 estimated
Source text: Patch clamp experiments permit the detection of currents through the TRPC5 channel in the cell line described above. In normal whole-cell patch clamp recordings, a glass electrode is brought into contact with a single cell and a high-resistance (gigaohm) seal is established with the cell membrane. The membrane is then ruptured to achieve the whole-cell configuration, permitting control of the voltage of the cell membrane and measurement of currents flowing across the membrane using the amplifier attached to the electrode and resulting in the replacement of cytoplasm with the pipette solution. A perfusion system permits control of the extracellular solution, including the addition of blockers and activators of the current. The current can be activated by including 1.4 μM free Ca^2+ in the pipette (intracellular) solution, and 80 μM LaCl3 in the extracellular solution.
TRPC5 cells were induced 20-48 hours, removed from growth plates, and replated at low density (to attain good single-cell physical separation) on glass coverslips for measurement. In some cases, cells were grown in low density overnight on glass coverslips. Patch clamp recordings were made in the whole-cell mode with a holding potential of −40 mV. Every 5 seconds, a voltage ramp was applied from −120 to +100 mV, 400 ms in duration. Currents elicited were quantified at −80 mV and +80 mV. The internal solution consisted of 140 mM cesium aspartate, 10 mM HEDTA, 2 mM CaCl2, 2.27 mM MgCl2 and 10 mM HEPES, pH 7.2, with 1,400 nM calculated free Ca^2+. The external solution consisted of 150 mM NaCl, 4.5 mM KCl, 1 mM MgCl2, 2 mM CaCl2, 10 mM HEPES, 10 mM glucose, 1 mM EGTA, pH 7.4. Upon addition of LaCl3, TRPC5 current was induced only in TRPC5-expressing cells and not in parental HEK293 TREx cells. Removal of the LaCl3 stimulus causes most of the current to go away. Potential blockers were tested for ability to block both inward and outward currents in the continued presence of LaCl3.
IC50 of a compound of Formula (I) was estimated by testing the compound at 5 μM and 500 nM. […] IC50 for a compound of Formula (I) between 500 nM and 5 μM was similarly estimated.

Structure (SMILES) | IC50 (TRPC5 channel [1]) [nM] | IC50 (TRPC5 channel [2]) [nM]
Cn1c(=O)n(CCCO)c(=O)c2c(Cc3ccc(Cl)cc3)c(Oc3cccc(OC(F)(F)F)c3)cnc21 [Compound 21, 5-(4-chlorobenzyl)-3-(3-hydroxypropyl)-1-methyl-6-(3-(trifluoromethoxy)phenoxy)pyrido[2,3-d]pyrimidine-2,4(1H,3H)-dione] | 269 | < 1
CC(C)CCc1c(-c2ccccc2C(C)C)cnc2c1c(=O)n(CCCO)c(=O)n2C [Compound 23, 3-(3-hydroxypropyl)-5-isopentyl-6-(2-isopropylphenyl)-1-methylpyrido[2,3-d]pyrimidine-2,4(1H,3H)-dione] | 6490 | 12.2
Cc1cncc(Oc2cnc3c(c2Cc2ccc(Cl)cc2)c(=O)n(CCCO)c(=O)n3C)c1 [Compound 27, 5-(4-chlorobenzyl)-3-(3-hydroxypropyl)-1-methyl-6-(5-methylpyridin-3-yloxy)pyrido[2,3-d]pyrimidine-2,4(1H,3H)-dione] | – | 29
CC(C)Oc1cnc2c(c1Cc1ccccc1)c(=O)n(CCCO)c(=O)n2C [Compound 29, 5-benzyl-3-(3-hydroxypropyl)-6-isopropoxy-1-methylpyrido[2,3-d]pyrimidine-2,4(1H,3H)-dione] | 27 | 4.5
Cn1c(=O)n(CCCO)c(=O)c2c(Cc3ccc(F)cc3)c(Oc3ccc(Cl)cc3)cnc21 [Compound 30, 6-(4-chlorophenoxy)-5-(4-fluorobenzyl)-3-(3-hydroxypropyl)-1-methylpyrido[2,3-d]pyrimidine-2,4(1H,3H)-dione] | 357 | < 1
CC(C)Oc1cnc2c(c1Cc1ccc(F)cc1)c(=O)n(CCCO)c(=O)n2C [Compound 31, 5-(4-fluorobenzyl)-3-(3-hydroxypropyl)-6-isopropoxy-1-methylpyrido[2,3-d]pyrimidine-2,4(1H,3H)-dione] | 27 | 1.47
Cn1c(=O)n(CCCO)c(=O)c2c(Cc3ccccc3)c(-c3cccc(F)c3)cnc21 [Compound 34, 5-benzyl-6-(3-fluorophenyl)-3-(3-hydroxypropyl)-1-methylpyrido[2,3-d]pyrimidine-2,4(1H,3H)-dione] | 154 | 8.3
Cn1c(=O)n(CCCO)c(=O)c2c(C(O)c3ccc(Cl)cc3)c(-c3cccc(OC(F)(F)F)c3)cnc21 (centres unmarked) [Compound 39, 5-((4-chlorophenyl)(hydroxyl)methyl)-3-(3-hydroxypropyl)-1-methyl-6-(3-(trifluoromethoxy)phenyl)pyrido[2,3-d]pyrimidine-2,4(1H,3H)-dione] | – | 51.7
Cn1c(=O)n(CCCO)c(=O)c2c(Cc3ccc(Cl)cc3)c(-c3cccc(OC(F)(F)F)c3)cnc21 [Compound 40, 5-(4-chlorobenzyl)-3-(3-hydroxypropyl)-1-methyl-6-(3-(trifluoromethoxy)phenyl)pyrido[2,3-d]pyrimidine-2,4(1H,3H)-dione] | – | 2.9
Cn1c(=O)n(CCCO)c(=O)c2c(Cc3ccc(C(F)(F)F)nc3)c(Oc3cccc(Cl)c3)cnc21 [Compound 43, 6-(3-chlorophenoxy)-3-(3-hydroxypropyl)-1-methyl-5-((6-(trifluoromethyl)pyridin-3-yl)methyl)pyrido[2,3-d]pyrimidine-2,4(1H,3H)-dione] | 1420 | –
CC(C)CC(O)c1c(Oc2cccc(OC(F)(F)F)c2)cnc2c1c(=O)n(CCCO)c(=O)n2C (centres unmarked) [Compound 44, 5-(1-hydroxy-3-methylbutyl)-3-(3-hydroxypropyl)-1-methyl-6-(3-(trifluoromethoxy)phenoxy)pyrido[2,3-d]pyrimidine-2,4(1H,3H)-dione] | 3450 | –
CC(C)CCc1c(Oc2cccc(C(F)(F)F)c2)cnc2c1c(=O)n(CCCO)c(=O)n2C [Compound 46, 3-(3-hydroxypropyl)-5-isopentyl-1-methyl-6-(3-(trifluoromethyl)phenoxy)pyrido[2,3-d]pyrimidine-2,4(1H,3H)-dione] | > 20000 | –
CC(C)CCc1c(Oc2cccc(Cl)c2)cnc2c1c(=O)n(CCCO)c(=O)n2C [Compound 48, 6-(3-chlorophenoxy)-3-(3-hydroxypropyl)-5-isopentyl-1-methylpyrido[2,3-d]pyrimidine-2,4(1H,3H)-dione] | > 10000 | –
CC(C)CCc1c(Oc2cccc(OC(F)(F)F)c2)cnc2c1c(=O)n(CCCO)c(=O)n2C [Compound 49, 3-(3-hydroxypropyl)-5-isopentyl-1-methyl-6-(3-(trifluoromethoxy)phenoxy)pyrido[2,3-d]pyrimidine-2,4(1H,3H)-dione] | > 20000 | –
